Results: patent US8394762B2, “Self-decontaminating coatings containing antimicrobial peptides” (The United States of America, as represented by the …, priority 2010, dated 2013)

Experiments:
[1] = test system: Staphylococcus aureus (ATCC 25923); experiment: MIC testing of peptides in solution, Gram-positive; type: cell-based; conditions: peptide in solution, LB media, 18 hr 37° C., 1×10^5 CFU
Excerpt: (§1) Bacteria and media: Bacterial strains were obtained from the American Type Culture Collection (ATCC, Manassas, Va.) Staphylococcus aureus (ATCC 25923) and Escherichia coli (ATCC 11229) were used for bacterial Gram-positive and Gram-negative challenges, respectively. Luria-Bertani (LB) media (Difco Laboratories, Detroit, Mich.), prepared as per the manufacturer's specifications, was used as a bacterial growth and dilution medium for preparation of bacteria for Gram-positive and Gram-negative challenges.
Peptides: Peptides Chr-1, Chr-3, Chr-1 Truncated, and Chr-3 Truncated were obtained from Biosynthesis, Inc. (Lewisville, Tex.). Peptides were synthesized then purified by HPLC, Peptides arrived lyophilized, and were resuspended in sterile H2O. For minimum inhibitory concentration (MIC) testing, this suspension was added to media as described below. […]
Bacterial challenge: MIC testing: To determine the minimum inhibitory concentration (MIC) of peptides, compounds were weighed and dissolved in sterile water. […] Log phase cells were harvested by centrifugation, counted on a hemocytometer using bright field microscopy, pelleted by centrifugation at 4000×g for 10 min, and resuspended in a 0.5% NaCl solution at a concentration of 1×10^7 cfu/mL. […] MIC was determined to be the lowest concentration of biocide that prevented visible bacterial growth at 18 hr.

Escherichia coli = experiment: MIC testing of peptides in solution, Gram-negative; type: cell-based; conditions: peptide in solution, LB media, 18 hr 37° C., 1×10^5 CFU
[2] = test system: Staphylococcus aureus (ATCC 25923); experiment: Surface testing (log kill) of peptide-containing acrylic coatings, Gram-positive; type: cell-based; conditions: for Surface antimicrobial activity of coating (in words), Gram-positive / Gram Positive Sample 1 Log Kill / Gram Positive Sample 2 Log Kill / Gram Positive Sample 3 Log Kill / Gram Positive Average Log Kill: 1% (w/w) peptide in acrylic coating; for Gram Positive Sample 1 Log Kill / Gram Positive Sample 2 Log Kill / Gram Positive Sample 3 Log Kill / Gram Positive Average Log Kill: 2 hr contact; for Gram Positive Sample 1 Log Kill / Gram Positive Sample 2 Log Kill / Gram Positive Sample 3 Log Kill: 1×10^5 bacteria; for Gram Positive Average Log Kill: average of triplicate
Excerpt: as §1
(§2) Peptides: Peptides Chr-1, Chr-3, Chr-1 Truncated, and Chr-3 Truncated were obtained from Biosynthesis, Inc. (Lewisville, Tex.). Peptides were synthesized then purified by HPLC, Peptides arrived lyophilized, and were resuspended in sterile H2O. For minimum inhibitory concentration (MIC) testing, this suspension was added to media as described below. For surface challenges, this peptide mixture was added to a commercial acrylate coating resin system at 1% (w/w) solids based on the solids of the polymer.
(§3) Coating preparation: Films were prepared by combining 25 mg of the respective peptide with 4.95 g acrylate resin (Minwax® Polycrylic®, a water borne polyacrylate resin, 50% w/w solids) with agitation. The final solution was allowed to stir for an additional 30 min and films were cast by brush onto a pre-cleaned aluminum foil. The coatings were allowed to cure at ambient conditions for 24 hours prior to microbial testing. Average thickness of films was determined by a QuaNix 4500 (Automation) paint thickness gauge.
(§4) Surface testing: Bacteria were grown at 37° C. Log phase cells were harvested by centrifugation, counted on a hemocytometer using bright field microscopy, pelleted by centrifugation at 4000×g for 10 min, and resuspended in a 0.5% NaCl solution at a concentration of 1×10^7 cfu/mL. To prevent desiccation of the bacteria during testing, a hydration chamber was prepared. The chamber consisted of a sterile 3×3 in gauze pad placed in the bottom of a sterile 150×15 mm Petri dish. The gauze pad was saturated with 5 mL of sterile water and the test samples placed on top. A 10 μL aliquot containing, 1×10^5 bacteria was added to each test coating (280 mm^2), and then placed in a hydration chamber at room temperature. After 2 hr of incubation, the remaining bacteria were recovered by placing the coating in a tube containing 5 mL sterile LB media, followed by 30 sec of vortexing. Serial dilutions were carried out, and incubated for 18 hr at 37° C. with agitation. Following incubation, the cultures were examined for the presence of turbidity, indicating bacterial growth. Each coating was tested in triplicate. […] All bacterial challenge procedures were conducted using standard aseptic techniques in a BSL-2 hood.

[3] = test system: Escherichia coli (ATCC 11229); experiment: Surface testing (log kill) of peptide-containing acrylic coatings, Gram-negative; type: cell-based; conditions: for Gram Negative Sample 1 Log Kill / Gram Negative Sample 2 Log Kill / Gram Negative Sample 3 Log Kill / Gram Negative Average Log Kill: 2 hr contact; for Gram Negative Sample 1 Log Kill / Gram Negative Sample 2 Log Kill / Gram Negative Sample 3 Log Kill: 1×10^5 bacteria; for Gram Negative Average Log Kill: average of triplicate
Excerpt: as §1, §2, §3, §4

[4] = Surface energy and contact angle of peptide coatings (sessile drop); type: physicochemical; conditions: peptide in acrylic coating; for Critical Surface Energy: calculated from contact angle data; for Contact angle CH2OHCH2OH: ethylene glycol; for Contact angle CH2OHCH2OH / Contact angle CH2I2 / Contact angle H2O: 15 sec after application; for Contact angle CH2I2: methylene iodide; for Contact angle H2O: water
Experimental: Coating preparation: Films were prepared by combining 25 mg of the respective peptide with 4.95 g acrylate resin ([…]® Polycrylic®, a water borne polyacrylate resin, 50% w/w solids) with agitation. The final solution was allowed to stir for an additional 30 min and films were cast by brush onto a pre-cleaned aluminum foil. The coatings were allowed to cure at ambient conditions for 24 hours prior to microbial testing. Average thickness of films was determined by a QuaNix 4500 (Automation) paint thickness gauge. Surface Energy and Contact Angle: Surface energy and contact angle measurements were performed using a VCA 2500 video contact angle system by AST Products, Inc. Contact angle measurements using the sessile drop technique. An image was captured of the interface 15 sec after application and contact angle was measured. Due to the complex nature of coating and difficulty in ascertaining the surface segregating ability of the peptide. The surface contact angle method was used and subsequent critical surface energy calculations were based on the data obtained. In all cases the surface became more hydrophobic as indicated by the significant increase in contact angle for water. […] Upon subsequent analysis, a correlation was observed between critical surface energy and surface antimicrobial properties, especially Gram-positive, and to a much lesser extent Gram-negative.

[5] = Surface segregation of peptide, bromophenol blue staining; type: physicochemical; conditions: peptide in acrylic coating; for Molecules Peptide per mm^2 at surface of coating: absorbance at 600 nm
Experimental: as §3
Surface Segregation of Peptide: Each 280 mm^2 section of the test coating was submerged in 0.5% bromophenol blue for one minute. Coatings were then removed and washed three times with 20 mL di-H2O. Bromophenol blue was then recovered from the test samples using 0.05 M HCl in ethanol. Absorbance at 600 nm was determined using a Cary 5E UV-Vis-NIR (Varian, Walnut Creek, Calif.). Beer's Law was used to determine concentration of bromophenol blue and thus concentration of peptides at the surface of the coatings.
Bromophenol blue has been used extensively to quantify the amount of protein or peptide in a solution (Bonate, Anal Biochem 1988, 175, 300-4; Schosinsky et al., Clin Chem 1987, 33, 223-6). A test method to visualize surface peptide using bromophenol blue was adapted from these solution test methods. To determine the extent which peptides were segregated to the surface of test coatings, each coating was reacted with an aqueous solution containing 0.5% bromophenol blue. This solution provided molar excess of bromophenol blue that was able to undergo an acid-base reaction with the amines of the peptide at a 1:1 ratio. The reaction was then reversed, and the bromophenol blue recovered with […]. The absorbance of this solution at 600 nm was determined and Beer's Law was used to determine the concentration of bromophenol blue (FIG. 2). This could be directly converted into number of peptides at the surface and correlated directly to the effectiveness of each coating.

[6] = test system: Gram-positive and Gram-negative bacteria; conditions: both Gram-positive and Gram-negative bacteria; Iijima et al. 2003; cited from earlier work
eukaryotic cells = conditions: literature; cited from earlier work
[7] = 1% (w/w) peptide in acrylic coating

Chr-1: Full length antimicrobial peptide Chrysophsin-1 from gills of red sea bream Chrysophrys major, SEQ. ID. NO. 1 (FFWLIKGAIHAGKAIHGLIHRRRH; Chrysophrys major)
MIC Gram + [1]: 0.00667 mg of peptide per mL of culture media | MIC Gram − (Escherichia coli): 0.000667 mg of peptide per mL of culture media | Surface antimicrobial activity of coating (in words), Gram-positive [2]: high activity | Gram Positive Sample 1 Log Kill [2]: 4 | Gram Positive Sample 2 Log Kill [2]: 4 | Gram Positive Sample 3 Log Kill [2]: 3 | Gram Positive Average Log Kill [2]: 3.6667 | Reduction of bacterial loads by coating ([2]; Gram-positive and Gram-negative together): at least 90% | Reduction of Gram-positive bacteria by peptide containing coating ([2]; after two hours): 99.9% | Surface antimicrobial activity of coating (in words), Gram-negative [3, 7]: high activity | Gram Negative Sample 1 Log Kill [3, 7]: 1 | Gram Negative Sample 2 Log Kill [3, 7]: 2 | Gram Negative Sample 3 Log Kill [3, 7]: 1 | Gram Negative Average Log Kill [3, 7]: 1.3333 | Reduction of Gram-negative bacteria by peptide containing coating ([3]; after two hours): 90% | Critical Surface Energy [4]: 131.6 dynes/cm | Contact angle CH2OHCH2OH [4]: 60.77(±3.35) | Contact angle CH2I2 [4]: 69.45(±4.81) | Contact angle H2O [4]: 53.05(±4.04) | Molecules Peptide per mm^2 at surface of coating [5]: 6.8 × 10^13 Molecules Peptide per mm^2 | Antimicrobial activity concentration [6]: low micromolar | Toxicity to eukaryotic cells (eukaryotic cells): varying levels of toxicity

Chr-3: Full length antimicrobial peptide Chrysophsin-3 from gills of red sea bream Chrysophrys major, SEQ. ID. NO. 3 (FIGLLISAGKAIHDLIRRRH; Chrysophrys major)
MIC Gram + [1]: 0.00667 mg of peptide per mL of culture media | MIC Gram − (Escherichia coli): 0.0667 mg of peptide per mL of culture media | Surface antimicrobial activity of coating (in words), Gram-positive [2]: moderate activity | Gram Positive Sample 1 Log Kill [2]: 1 | Gram Positive Sample 2 Log Kill [2]: 1 | Gram Positive Sample 3 Log Kill [2]: 1 | Gram Positive Average Log Kill [2]: 1 | Gram Negative Sample 1 Log Kill [3, 7]: 0 | Gram Negative Sample 2 Log Kill [3, 7]: 0 | Gram Negative Sample 3 Log Kill [3, 7]: 0 | Gram Negative Average Log Kill [3, 7]: 0 | Critical Surface Energy [4]: 97.22 dynes/cm | Contact angle CH2OHCH2OH [4]: 63.02(±3.51) | Contact angle CH2I2 [4]: 64.57(±3.52) | Contact angle H2O [4]: 43.88(±5.01) | Peptide at surface of coating, % of total peptide [5]: (~1%) | Molecules Peptide per mm^2 at surface of coating [5]: 1.9 × 10^13 Molecules Peptide per mm^2 | Antimicrobial activity concentration [6]: low micromolar | Toxicity to eukaryotic cells (eukaryotic cells): varying levels of toxicity
